Measurements: patent publication EP0007880B1, “Medicines containing as active ingredients compounds of the benzene-sulfone type; compounds of this type and process for their preparation” (CHOAY S.A., priority 1978, dated 1980)

Tests used:
rats Wistar mâles = assay: Normolipemic and/or hypoglycemic activity in Triton W.R.-induced hyperlipidemia in fasted rats; format: in vivo; set-up: Cholestérol Total / Cholestérol Estérifié / Trigly-cérides: unit not given here; conditions: fasted rats given Triton W.R. 200mg/kg i.v.; for Cholestérol Estérifié / Cholestérol Total / Glucose / Lipides totaux / Trigly-cérides: product given simultaneously, i.p. 100 mg/kg or oral 500 mg/kg (route not stated per product), blood sampled six hours later; for Cholestérol Rapport E/T: ratio esterified/total cholesterol, product i.p. 100 mg/kg or oral 500 mg/kg, six hours later
Experimental: Les essais sont réalisés sur des groupes de 5 rats Wistar mâles (150 à 175g). Les produits testés sont administrés soit par voie intrapéritonéale, à raison de 100 mg/kg dans du soluté isotonique, soit par voie orale, en solution aqueuse à 3% de gomme adragante (1 ml/100g de poids corporel) en quantité correspondant à 500 mg/kg.
Pour ces essais, on provoque une hyperlipidémie chez les animaux au moyen du produit commercialisé par la Société ROHM et HAAS sous le nom de Triton W.R. Chez le rat à jeun, l'injection intraveineuse de Triton entraine une hyperlipidémie particulièrement nette pour les triglycérides .et de façon moindre pour les lipides totaux.
Cette hyperlipidémie est combattue par l'action des substances actives selon l'invention.
Le protocole de l'essai est le suivant. Les rats sont mis à jeûner pendant 18 heures. Le Triton W.R. est administré par voie intraveineuse en solution aqueuse à 10% à raison de 200mg/kg.
Simultanément, les rats reçoivent les produits à tester. Six heures plus tard, on effectue les dosages de façon traditionnelle sur des échantillons sanguins.

souris Swiss = assay: Acute toxicity in mice (lethal dose 50, Behrens and Karber); format: in vivo; conditions: dose 1,5g/kg, voie intrapéritonéale; mice observed 8 days

## O=S(=O)(CC1(O)CCCCC1)c1ccccc1 [Exemple 21]
Rats Wistar mâles
  Cholestérol Estérifié: 2,06
  Cholestérol Total: 3,09
  Glucose: 0,89 g/l
  Lipides totaux: 9,56 g/l
  Trigly-cérides: 2,23
  Cholestérol Rapport E/T: 66,0

## O=S(=O)(CC(O)c1ccccc1)c1ccccc1 (stereo not shown) [Exemple 22]
Rats Wistar mâles
  Cholestérol Estérifié: 1,89
  Cholestérol Total: 2,28
  Glucose: 1,18 g/l
  Lipides totaux: 8,50 g/l
  Trigly-cérides: 3,95
  Cholestérol Rapport E/T: 82,4

## O=S(=O)(CC(O)c1ccc(Cl)cc1)c1ccccc1 (stereo not shown) [Exemple 23]
Souris Swiss
  animaux encore en vie: 5 animaux sur 5 sont encore en vie

## O=S(=O)(CC(O)c1ccc(F)cc1)c1ccccc1 (stereo not shown) [Exemple 24]
Rats Wistar mâles
  Cholestérol Estérifié: 0,98
  Cholestérol Total: 1,48
  Glucose: 1,12 g/l
  Lipides totaux: 15,30 g/l
  Trigly-cérides: 1,80
  Cholestérol Rapport E/T: 69,40

## O=S(=O)(CC1(O)CCCCC1)c1ccc(F)cc1 [Exemple 32]
Rats Wistar mâles
  Cholestérol Estérifié: 0,73
  Cholestérol Total: 1,14
  Glucose: 0,92 g/l
  Lipides totaux: 10,99 g/l
  Trigly-cérides: 4,00
  Cholestérol Rapport E/T: 65,17

## CC(C)(O)CS(=O)(=O)c1ccccc1 [Exemple 19]
Rats Wistar mâles
  Cholestérol Estérifié: 1,09
  Cholestérol Total: 2,04
  Glucose: 0,78 g/l
  Lipides totaux: 7,62 g/l
  Trigly-cérides: 2,84
  Cholestérol Rapport E/T: 55,6

## O=S(=O)(CCCO)c1ccccc1 [Exemple 40]
Rats Wistar mâles
  Cholestérol Estérifié: 0,99
  Cholestérol Total: 1,56
  Glucose: 0,93 g/l
  Lipides totaux: 3,76 g/l
  Cholestérol Rapport E/T: 61,2

## CC(C)(Oc1ccc(Cl)cc1)C(=O)OCCCS(=O)(=O)c1ccccc1 [Exemple 47]
Rats Wistar mâles
  Cholestérol Estérifié: 0,90
  Cholestérol Total: 1,52
  Glucose: 0,97 g/l
  Lipides totaux: 10,28 g/l
  Trigly-cérides: 4,56
  Cholestérol Rapport E/T: 59,99

## CC(C(O)(c1ccccc1)c1ccccc1)S(=O)(=O)c1ccccc1 (stereo not shown) [Exemple 27]
Souris Swiss
  animaux encore en vie: 5 animaux sur 5 sont encore en vie

## CCC(C)(O)CS(=O)(=O)c1ccccc1 (stereo not shown) [Exemple 20]
Rats Wistar mâles
  Cholestérol Estérifié: 1,64
  Cholestérol Total: 2,20
  Glucose: 0,84 g/l
  Lipides totaux: 7,36 g/l
  Trigly-cérides: 2,07
  Cholestérol Rapport E/T: 76,8

## O=S(=O)(CC(O)c1ccccc1)c1ccc(F)cc1 (stereo not shown) [Exemple 28]
Rats Wistar mâles
  Cholestérol Estérifié: 0,66
  Cholestérol Total: 1,24
  Glucose: 1,22 g/l
  Lipides totaux: 6,0 g/l
  Trigly-cérides: 4,31
  Cholestérol Rapport E/T: 54,4
